Data reported in PubChem BioAssay (NCI).
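Grown in 96-well plates, cells were treated for 48 hours with each compound at five concentrations. Insufficient inhibition: endpoint recorded as highest concentration tested. Abbreviation: GI50, concentration required for 50% inhibition of growth. Definition used: TGI = concentration required for complete inhibition of growth.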

What was measured:
Assay in all cases: growth of human tumour cells (NCI), 48 h
SK-MEL-28 melanoma = tested on: SK-MEL-28 melanoma
HOP-62 NSCLC = tested on: HOP-62 NSCLC
OVCAR-4 ovarian = tested on: OVCAR-4 ovarian
RXF 393 renal = tested on: RXF 393 renal
SF-268 CNS = tested on: SF-268 CNS
ACHN renal = tested on: ACHN renal
HT29 colon = tested on: HT29 colon
SR leukemia = tested on: SR leukemia
DU-145 prostate = tested on: DU-145 prostate
CCRF-CEM leukemia = tested on: CCRF-CEM leukemia

SMILES	TGI (SK-MEL-28 melanoma) [µM]	TGI (HOP-62 NSCLC) [µM]	TGI (OVCAR-4 ovarian) [µM]	TGI (RXF 393 renal) [µM]	TGI (SF-268 CNS) [µM]	TGI (ACHN renal) [µM]	TGI (HT29 colon) [µM]	TGI (SR leukemia) [µM]	GI50 (SK-MEL-28 melanoma) [µM]	GI50 (HOP-62 NSCLC) [µM]	GI50 (DU-145 prostate) [µM]	TGI (DU-145 prostate) [µM]	GI50 (RXF 393 renal) [µM]	GI50 (SF-268 CNS) [µM]	GI50 (ACHN renal) [µM]	GI50 (CCRF-CEM leukemia) [µM]	TGI (CCRF-CEM leukemia) [µM]	GI50 (SR leukemia) [µM]	GI50 (OVCAR-4 ovarian) [µM]	GI50 (HT29 colon) [µM]
CCCCOC(=O)NC(=O)c1cn(CCSCCOC(=O)NCCCCCCNC(=O)OCCSCCn2cc(C(=O)NC(=O)OCCCC)c(=O)[nH]c2=O)c(=O)[nH]c1=O	> 100	> 100	> 100	> 100	> 100	> 100	> 100	> 100												
COc1cc(-c2nc3sc4c(c3c(=O)[nH]2)CCCCCC4)cc(OC)c1OC	> 33.2	> 33.2		2.55	> 33.2	> 33.2		> 33.2	1.95	1.36	1.78	> 33.2	0.636	2.97	1.79	1.28	> 33.2	0.776		
Fc1ccc(C2SCc3nc4ccccc4n32)cc1 (stereo not drawn)	76.5	> 100	> 100	70.7	> 100	> 100	> 100	96.6									> 100			
CCN(c1ccc(Br)cc1)c1c(Br)c(=O)nc2ccccn12	> 100	> 100			> 100	> 100	> 100	> 100									> 100			
O=C(OCC1CO1)c1cccs1 (stereo not drawn)	> 100	> 100	> 100	> 100	> 100	> 100	> 100										> 100			
C1OC1CO[C@@H]1CO[C@H]2[C@@H]1OC[C@H]2OCC1CO1 (stereo partly drawn)	> 100	> 100	> 100	> 100	> 100	> 100	> 100	> 100									> 100			
CN1CC(C(=O)C2C(=O)c3ccccc3C2=O)C(=O)C(=O)C(C(=O)C2C(=O)c3ccccc3C2=O)C1 (stereo not drawn)	> 100	> 10			> 100	> 100	> 100	> 100									> 100			
CCN(CCCl)CCCNc1c2ccccc2nc2ccc(OC)cc12						1.34		1.04	665	200			601	254		67.6			360	82.3
C/C(=N\N=C(/[Se])N1CC2CCC(CC2)C1)c1ccccn1	1.03	1.92	2.56	0.359	5.43	1.78	2.6					1.68					0.808			
CC(=O)CCCCO	> 100	> 100	> 100	> 100	> 100	> 100	> 100										> 100			
CN1CCN(Cc2ccc(NC(=O)c3ccc(C#Cc4c(N)ncc5ccc(F)cc45)cc3)cc2C(F)(F)F)CC1	1.74	1.59	5.83	1.6	2.14	1.71	1.86	2.32	1.01	0.883	0.968	1.77	0.835	0.948	0.97			0.897	1.48	0.876
CO[C@@H]1CC(=O)C2(CC(=O)O[C@@H]2/C=C(\C)CCC=C(C)C)C[C@@H]1O (stereo partly drawn)	1.86	2.64		2.92	4.74	1.78	> 50		0.83	1.06	0.577	1.55	0.818	1.18	0.817					1.35
NC(N)=NNC(=O)CCCCCCCC(=O)NN=C(N)N	> 100	> 100	> 100	> 100	> 100	> 100	> 100										> 100			
Cc1ccc2c(c1)NC(=O)CC(c1ccccc1)=N2	> 100	> 100	> 100		> 100	> 100	> 100	64.2				> 100								
S=C1Nc2ccc(Cl)cc2C2(c3ccccc3)N3CCN=C3NN12 (stereo not drawn)	> 100	> 100	> 100		> 100	> 100	> 100	88.8	30.9	33.3	40	> 100		28.6	55.9	26.9	70.7	23.7	26.1	28.1
CC(C)(C)C(=O)ON1N=NC2C3CC(OCc4ccccc4)(OCc4ccccc4)C(O3)C21 (stereo not drawn)	35.3	> 100	82.4	36.5	88.2	91.5	47.9										45.8			
CCN1c2ccccc2C(Cl)(c2ccc(N(C)C)cc2)c2ccccc21	22.4	17.3	25.3		19.3	28.4	12.4		7.96	4.27	5.5	17.1		5.61	12.4	2.34	17		11.9	2.88
O=C(C(=O)N1CC2C=CC1CC2)c1c[nH]c2ccccc12 (stereo not drawn)		> 100	> 100	> 100	> 100	> 100	> 100	> 100									> 100			
CC(=O)OC1(C)C(=O)OC1(C)C(C)=O (stereo not drawn)	> 100		> 100	> 100	> 100	> 100	> 100										> 100			
C=CC1CC12C(=O)C1OC2(C)C2C(=O)c3c(O)ccc(O)c3C(=O)C12 (stereo not drawn)	25.4	25	25.6	5.3	9.58	4.37	16		4.94	9.66	3.91	13	2.11	2.8	1.77	1.3	16		7.84	4.03
